Key:
Type in all cases: biochemical
MMP-1 = target: T1, MMP-1 (Homo sapiens, UniProt P03956); test: MMP-1 activity, fluorometric detection of reaction product; settings: 10 μM; human recombinant protein; remaining activity
T1 sequence (P03956 100-469): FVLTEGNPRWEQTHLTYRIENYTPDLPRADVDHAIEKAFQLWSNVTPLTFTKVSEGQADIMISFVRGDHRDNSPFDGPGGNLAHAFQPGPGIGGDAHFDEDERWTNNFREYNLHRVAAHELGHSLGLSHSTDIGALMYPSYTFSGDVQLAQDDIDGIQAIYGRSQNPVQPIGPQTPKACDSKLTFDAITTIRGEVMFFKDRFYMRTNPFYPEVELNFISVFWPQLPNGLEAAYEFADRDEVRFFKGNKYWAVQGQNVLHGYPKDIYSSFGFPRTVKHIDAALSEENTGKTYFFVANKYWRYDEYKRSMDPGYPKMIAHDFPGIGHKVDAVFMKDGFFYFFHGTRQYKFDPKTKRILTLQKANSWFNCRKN
Description: (§1) The activity of MMPs of MMP-1, MMP-2, MMP-9, MMP-12, MMP-13 and TACE was measured using human recombinant proteins. The activity of MMP-8 was measured in human neutrophiles. After incubation with the corresponding substrate, the reaction product of each MMP was detected by fluorometry. The results are expressed as specific control activity percentages ((specific activity measured/specific control activity)×100) obtained in the presence of the compounds tested.

MMP-2 = target: T2, MMP-2 (Homo sapiens, UniProt P08253); test: MMP-2 activity, fluorometric detection of reaction product; settings: 10 μM; human recombinant protein; remaining activity
T2 sequence (P08253 110-660): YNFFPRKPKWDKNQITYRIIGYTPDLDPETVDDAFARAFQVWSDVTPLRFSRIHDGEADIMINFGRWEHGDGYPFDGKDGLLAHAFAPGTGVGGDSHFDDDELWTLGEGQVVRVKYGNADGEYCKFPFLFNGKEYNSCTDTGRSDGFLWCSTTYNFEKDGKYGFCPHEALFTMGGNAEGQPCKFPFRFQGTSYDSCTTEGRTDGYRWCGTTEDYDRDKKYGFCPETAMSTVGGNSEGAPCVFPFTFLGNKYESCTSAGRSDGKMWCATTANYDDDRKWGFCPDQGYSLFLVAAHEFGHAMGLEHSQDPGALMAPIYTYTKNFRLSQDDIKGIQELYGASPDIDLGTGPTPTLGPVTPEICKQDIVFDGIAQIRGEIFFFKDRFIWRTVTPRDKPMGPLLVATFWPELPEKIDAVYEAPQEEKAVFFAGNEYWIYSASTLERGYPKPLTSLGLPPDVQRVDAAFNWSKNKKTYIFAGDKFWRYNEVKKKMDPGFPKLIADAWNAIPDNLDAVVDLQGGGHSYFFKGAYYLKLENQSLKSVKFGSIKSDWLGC
Description: as §1

MMP-8 = target: T3, MMP-8 (Homo sapiens, UniProt P22894); test: MMP-8 activity measured in human neutrophiles, fluorometry; settings: 10 μM, remaining activity
T3 construct: endogenous in cells; host or cells: human neutrophils
Description: as §1

MMP-9 = MMP-9 (Homo sapiens, UniProt P14780); test: MMP-9 activity, fluorometric detection of reaction product; settings: 10 μM; human recombinant protein; remaining activity
Description: as §1

MMP-12 = MMP-12 (Homo sapiens, UniProt P39900); test: MMP-12 activity, fluorometric detection of reaction product; settings: 10 μM; human recombinant protein; remaining activity
Description: as §1

MMP-13 = MMP-13 (Homo sapiens, UniProt P45452); test: MMP-13 activity, fluorometric detection of reaction product; settings: 10 μM; human recombinant protein; remaining activity
Description: as §1

MMP-14 = MMP-14 (Homo sapiens, UniProt P50281); test: MMP-14 activity; settings: 10 μM; remaining activity
[1] = target: TACE (TNF-alpha converting enzyme) (Homo sapiens, UniProt P78536); test: TACE activity, fluorometric detection of reaction product; settings: 10 μM; human recombinant protein; remaining activity
Description: as §1

T3 sequence (P22894 101-467): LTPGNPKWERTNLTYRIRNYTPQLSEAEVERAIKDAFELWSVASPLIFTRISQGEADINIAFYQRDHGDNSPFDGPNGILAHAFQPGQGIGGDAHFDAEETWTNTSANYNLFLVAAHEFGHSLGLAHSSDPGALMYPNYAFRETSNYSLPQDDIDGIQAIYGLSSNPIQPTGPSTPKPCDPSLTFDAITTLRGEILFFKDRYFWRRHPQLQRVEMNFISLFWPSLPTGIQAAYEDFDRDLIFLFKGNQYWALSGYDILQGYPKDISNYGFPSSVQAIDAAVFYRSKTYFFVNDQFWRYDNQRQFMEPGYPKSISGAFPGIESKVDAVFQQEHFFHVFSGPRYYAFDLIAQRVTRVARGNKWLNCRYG
TACE (TNF-alpha converting enzyme), sequence (P78536 215-824): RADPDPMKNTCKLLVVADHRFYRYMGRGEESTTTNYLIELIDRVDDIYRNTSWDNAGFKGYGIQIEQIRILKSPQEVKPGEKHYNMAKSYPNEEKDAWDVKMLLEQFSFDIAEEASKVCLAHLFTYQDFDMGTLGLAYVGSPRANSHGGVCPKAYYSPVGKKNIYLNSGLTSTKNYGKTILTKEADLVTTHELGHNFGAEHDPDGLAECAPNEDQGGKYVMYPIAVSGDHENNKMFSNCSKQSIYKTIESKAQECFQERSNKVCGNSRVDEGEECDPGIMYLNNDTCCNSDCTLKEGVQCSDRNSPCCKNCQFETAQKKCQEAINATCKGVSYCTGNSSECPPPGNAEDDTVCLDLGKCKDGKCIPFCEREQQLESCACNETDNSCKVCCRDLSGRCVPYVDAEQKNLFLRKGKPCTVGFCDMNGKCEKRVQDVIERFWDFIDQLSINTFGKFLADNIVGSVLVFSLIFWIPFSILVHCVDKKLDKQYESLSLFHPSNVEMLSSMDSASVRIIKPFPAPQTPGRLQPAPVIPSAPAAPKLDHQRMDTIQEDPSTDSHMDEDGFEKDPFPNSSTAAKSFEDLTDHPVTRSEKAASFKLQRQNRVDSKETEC
MMP-9, sequence (P14780 94-707): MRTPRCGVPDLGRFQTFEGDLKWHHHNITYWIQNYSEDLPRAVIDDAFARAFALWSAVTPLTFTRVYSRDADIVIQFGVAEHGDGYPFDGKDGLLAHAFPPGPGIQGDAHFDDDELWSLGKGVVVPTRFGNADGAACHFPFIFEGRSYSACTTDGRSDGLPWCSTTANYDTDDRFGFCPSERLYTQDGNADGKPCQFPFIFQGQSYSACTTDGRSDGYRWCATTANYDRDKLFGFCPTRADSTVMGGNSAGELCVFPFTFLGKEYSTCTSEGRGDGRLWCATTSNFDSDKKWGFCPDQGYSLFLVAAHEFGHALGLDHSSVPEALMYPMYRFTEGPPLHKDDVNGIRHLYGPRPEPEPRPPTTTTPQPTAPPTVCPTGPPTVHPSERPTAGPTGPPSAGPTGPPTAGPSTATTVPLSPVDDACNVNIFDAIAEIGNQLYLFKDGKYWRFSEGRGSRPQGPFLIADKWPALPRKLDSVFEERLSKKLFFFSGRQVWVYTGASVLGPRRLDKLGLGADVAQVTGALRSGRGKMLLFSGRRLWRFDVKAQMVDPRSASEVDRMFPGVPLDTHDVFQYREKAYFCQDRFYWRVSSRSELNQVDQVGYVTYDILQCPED
MMP-12, sequence (P39900 106-470): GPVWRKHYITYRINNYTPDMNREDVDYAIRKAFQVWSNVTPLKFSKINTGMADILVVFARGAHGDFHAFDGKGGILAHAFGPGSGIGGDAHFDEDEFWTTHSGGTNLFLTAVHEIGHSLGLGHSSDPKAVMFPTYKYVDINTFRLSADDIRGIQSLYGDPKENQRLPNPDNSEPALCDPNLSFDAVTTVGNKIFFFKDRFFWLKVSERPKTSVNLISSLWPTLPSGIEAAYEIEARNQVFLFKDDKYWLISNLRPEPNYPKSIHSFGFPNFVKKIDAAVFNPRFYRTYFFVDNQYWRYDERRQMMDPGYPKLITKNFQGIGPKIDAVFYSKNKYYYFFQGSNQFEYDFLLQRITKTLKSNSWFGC

Question: Which results are given for `Cc1ccnc(-c2cc(C)ccn2)c1` [4,4′-dimethyl-2,2′-dipyridyl]?
Answer: MMP activity (% of control values ± SD), MMP-1 (MMP-1): 94.3 ± 0.1 % of control values; MMP activity (% of control values ± SD), MMP-2 (MMP-2): 100.8 ± 6.0 % of control values; MMP activity (% of control values ± SD), MMP-8 (MMP-8): 86.5 ± 7.4 % of control values; MMP activity (% of control values ± SD), MMP-9 (MMP-9): 88.5 ± 3.4 % of control values; MMP activity (% of control values ± SD), MMP-12 (MMP-12): 96.3 ± 1.0 % of control values; MMP activity (% of control values ± SD), MMP-13 (MMP-13): 90.0 ± 4.1 % of control values; MMP activity (% of control values ± SD), MMP-14 (MMP-14): 90.8 ± 4.7 % of control values; MMP activity (% of control values ± SD), TACE [1]: 106.4 ± 1.2 % of control values

Question: `Cc1cccc(-c2cccc(C)n2)n1` [6,6′-dimethyl-2,2′-dipyridyl] was tested. Which “MMP activity (% of control values ± SD), MMP-1” value (MMP-1) did it give?
Answer: Its value is 98.8 ± 0.7 % of control values.

Question: And the “MMP activity (% of control values ± SD), MMP-2” value (MMP-2)?
Answer: Its value is 95.9 ± 7.5 % of control values.

Question: And the “MMP activity (% of control values ± SD), MMP-8” value (MMP-8)?
Answer: Its value is 95.0 ± 6.5 % of control values.

Question: And the “MMP activity (% of control values ± SD), MMP-9” value (MMP-9)?
Answer: Its value is 101.0 ± 3.3 % of control values.

Question: What about the “MMP activity (% of control values ± SD), MMP-12” value (MMP-12) of the same molecule?
Answer: The value was 96.3 ± 1.0 % of control values.

Question: What about the “MMP activity (% of control values ± SD), MMP-13” value (MMP-13) of the same molecule?
Answer: Its value is 96.2 ± 2.6 % of control values.

Question: And the “MMP activity (% of control values ± SD), MMP-14” value (MMP-14)?
Answer: The value was 84.3 ± 3.0 % of control values.

Question: And the “MMP activity (% of control values ± SD), TACE” value [1]?
Answer: Its value is 100.3 ± 0.2 % of control values.

Question: Which “MMP activity (% of control values ± SD), MMP-1” value (MMP-1) does the source give for `Cc1ccc(-c2ccc(C)cn2)nc1` [5,5′-dimethyl-2,2′-dipyridyl] here?
Answer: The value was 96.1 ± 0.3 % of control values.

Question: And the “MMP activity (% of control values ± SD), MMP-2” value (MMP-2)?
Answer: Its value is 86.4 ± 2.2 % of control values.

Question: And the “MMP activity (% of control values ± SD), MMP-8” value (MMP-8)?
Answer: The value was 88.3 ± 6.7 % of control values.

Question: And the “MMP activity (% of control values ± SD), MMP-9” value (MMP-9)?
Answer: The value was 86.0 ± 3.4 % of control values.

Question: What about the “MMP activity (% of control values ± SD), MMP-12” value (MMP-12) of the same molecule?
Answer: The value was 93.4 ± 0.4 % of control values.

Question: And the “MMP activity (% of control values ± SD), MMP-13” value (MMP-13)?
Answer: The value was 89.4 ± 1.2 % of control values.

Question: What about the “MMP activity (% of control values ± SD), MMP-14” value (MMP-14) of the same molecule?
Answer: Its value is 90.2 ± 4.1 % of control values.

Question: And the “MMP activity (% of control values ± SD), TACE” value [1]?
Answer: The value was 100.8 ± 2.1 % of control values.
